Holding throughout (assay): biochemical
What all share (assay type): binding

The target of one assay is SfurOBP11 (Sogatella furcifera, UniProt V5T6E3). The conditions noted are these: SfurOBP11; protein and 1-NPN both 2.0 µM; competitor 2-20 µM; read-out: IC50. As for the experimental part:
(§1) Thirty-six rice odorants ([He et al., 2014]; [Wang et al., 2017]) and 1-N-phenyl-naphthylamine (1-NPN) were purchased from Sigma-Aldrich (St Louis, MO, USA). These odorants and 1-NPN were dissolved in high-performance liquid chromatography (HPLC) purify grade methanol for 1.0 mM as work solution.
(§2) Fluorescence competitive binding assays were performed on Tecan Spark 10M (Tecan Group Ltd., Männedorf, Switzerland) with the F96 Black ELIAS Plate (Sangon) ([Khuhro et al., 2017]; [Liu et al., 2017]). The solutions were excited at 337 nm and emission spectra were recorded between 390 and 490 nm. First, to test the binding constants of 1-NPN to the SfurOBPs, a 2.0 µM solution of protein in 50 mM Tris-HCl (pH = 7.4) was titrated with 1 mM 1-NPN to achieve virous concentrations. Next, the competitive binding of each odorant was measured using the 1-NPN as fluorescent reporter and odorant as competitor. The concentrations of protein and 1-NPN were both 2.0 µM, the odorant added after protein and 1-NPN added into the well of ELIAS Plate for 2 min. The final concentrations of each competitor were 2, 4, 6, 8, 10, 12, 14, 16, 18 and 20 µM. After 2 min of odorant added, the fluorescence intensity was measured and recorded. The volume of mixed solution in each well was maintained at 250 µL. Each interaction was performed in triplicates.
(§3) GraphPad Prism 7.0 software (GraphPad Software, Inc., La Jolla, CA, USA) was used to calculated and generated the binding constants (K1−NPN) of 1-NPN to SfurOBPs and relative Scatchard plots ([Ban et al., 2003]; [Li et al., 2016]). Dissociation constant (Ki) of each odorant to SfurOBP was computed from the corresponding IC50 value (the half maximal inhibitory concentration), using the following equation: Ki=[IC50]/(1 + [1-NPN]/K1−NPN), where [1-NPN] is the free concentration of 1-NPN and K1−NPN is the dissociation constant of the complex protein/1-NPN.

In another assay the target is SfurOBP1 (Sogatella furcifera, UniProt V5T8N5). The following applies: SfurOBP1; protein and 1-NPN both 2.0 µM; competitor 2-20 µM; read-out: IC50. As for the experimental part:
as §1, §2, §3

The next assay addresses SfurOBP3 (Sogatella furcifera, UniProt V5T818). The conditions noted are these: SfurOBP3; protein and 1-NPN both 2.0 µM; competitor 2-20 µM; read-out: IC50. The protocol:
as §1, §2, §3

Another assay concerns the target SfurOBP2 (Sogatella furcifera, UniProt V5T759). The conditions noted are these: SfurOBP2; protein and 1-NPN both 2.0 µM; competitor 2-20 µM; read-out: IC50. The protocol:
as §1, §2, §3

Chain of SfurOBP3 (V5T818 entry or part of it): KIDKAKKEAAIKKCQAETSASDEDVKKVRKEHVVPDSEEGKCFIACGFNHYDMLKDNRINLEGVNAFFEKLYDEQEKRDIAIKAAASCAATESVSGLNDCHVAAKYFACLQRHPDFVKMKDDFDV
Chain of SfurOBP11 (V5T6E3 entry or part of it): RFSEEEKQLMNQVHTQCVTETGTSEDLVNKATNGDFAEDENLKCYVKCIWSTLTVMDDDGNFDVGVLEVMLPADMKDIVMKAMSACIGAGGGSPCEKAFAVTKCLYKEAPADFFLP
Chain of SfurOBP1 (V5T8N5 entry or part of it): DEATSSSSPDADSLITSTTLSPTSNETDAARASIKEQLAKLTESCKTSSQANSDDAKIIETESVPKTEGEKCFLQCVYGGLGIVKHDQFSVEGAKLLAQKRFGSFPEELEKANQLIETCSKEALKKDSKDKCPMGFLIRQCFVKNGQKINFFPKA
Chain of SfurOBP2 (V5T759 entry or part of it): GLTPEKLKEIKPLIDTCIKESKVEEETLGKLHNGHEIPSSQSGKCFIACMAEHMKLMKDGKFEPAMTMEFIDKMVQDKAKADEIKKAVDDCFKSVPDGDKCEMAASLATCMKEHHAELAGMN

For orientation: IC50 means the midpoint of a concentration-inhibition curve. As for `CCCCCCCCCCCCCCCC(=O)OC` [methyl hexadecanoate], the concentration for half-maximal inhibition (IC50) at SfurOBP11, on SfurOBP1, on SfurOBP3 and on SfurOBP2 was over 20 µM in each case.

As for `Cc1cc(C(C)(C)C)c(O)c(C(C)(C)C)c1` [2,6-di-tert-butyl-4-methylphenol], the half-inhibitory concentration (IC50) on SfurOBP11 was 18 µM; at SfurOBP1, over 20 µM; on SfurOBP3 it was over 20 µM; on SfurOBP2, over 20 µM.
